Data taken from US9149038B2, “4-amino-6-(heterocyclic)picolinates and 6-amino-2-(heterocyclic)pyrimidine-4-carboxylates and their use as herbicides” (Dow AgroSciences LLC, priority 2013, dated 2015).
Like-named read-outs stand apart in the source and are kept apart here.

Experiments:
[1] = system: Key Grass and Sedge Weeds as well as Grass Crops; assay: Post-Emergent Test II: postemergent herbicidal activity, visual rating after 14 d (Table 8); assay type: in vivo; details: post-emergence, 336 h; for pest or weed control at 35 g/ha: 35 g ai/ha; for pest or weed control at 70 g/ha: 70 g ai/ha; for pest or weed control at 140 g/ha: 140 g ai/ha
Outline: (§1)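 Track-sprayed young seedlings (first/second true leaf) at 187 L/ha across a 2-fold rate series from the high rate down to 1/16×. Kept in greenhouse at 23-29° C day, subirrigated. Injury rated by eye after 14 d, 0 = no injury, 100 = complete kill.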

[2] = system: Key Broadleaf Weed and Crop Species; assay: Post-Emergent Test II: postemergent herbicidal activity, visual rating after 14 d (Table 7); assay type: in vivo; details: post-emergence, 336 h; for pest or weed control at 35 g/ha: 35 g ai/ha; for pest or weed control at 70 g/ha: 70 g ai/ha; for pest or weed control at 140 g/ha: 140 g ai/ha
Outline: as §1

[3] = barnyardgrass (Echinochloa crus-galli), read-out: Visual Growth Reduction (%) 14 Days After Application ECHCG
[4] = giant foxtail (Setaria faberi), read-out: Visual Growth Reduction (%) 14 Days After Application SETFA
[5] = maize, corn (Zea mays), read-out: Visual Growth Reduction (%) 14 Days After Application ZEAMX
[6] = rice (Oryza sativa), read-out: Visual Growth Reduction (%) 14 Days After Application ORYSA
[7] = wheat, spring (Triticum aestivum), read-out: Visual Growth Reduction (%) 14 Days After Application TRZAS
[8] = yellow nutsedge (Cyperus esculentus), read-out: Visual Growth Reduction (%) 14 Days After Application CYPES
[9] = lambsquarters (Chenopodium album), read-out: Visual Growth Reduction (%) 14 Days After Application CHEAL
[10] = oilseed rape, canola (Brassica napus), read-out: Visual Growth Reduction (%) 14 Days After Application BRSNN
[11] = redroot pigweed (Amaranthus retroflexus), read-out: Visual Growth Reduction (%) 14 Days After Application AMARE
[12] = sunflower (Helianthus annuus), read-out: Visual Growth Reduction (%) 14 Days After Application HELAN
[13] = velvetleaf (Abutilon theophrasti), read-out: Visual Growth Reduction (%) 14 Days After Application ABUTH
[14] = wild poinsettia (Euphorbia heterophylla), read-out: Visual Growth Reduction (%) 14 Days After Application EPHHL

SMILES: Nc1cc(-c2cc3c(cc2F)OC(F)(F)O3)nc(C(=O)O)c1Cl [Compound 42]
- pest or weed control at 35 g/ha [1, 3]: 95 to 100%
- pest or weed control at 70 g/ha [1, 3]: 95 to 100%
- pest or weed control at 140 g/ha [1, 3]: 95 to 100%
- pest or weed control at 35 g/ha [1, 4]: 60 to 74%
- pest or weed control at 70 g/ha [1, 4]: 75 to 84%
- pest or weed control at 140 g/ha [1, 4]: 75 to 84%
- pest or weed control at 35 g/ha [1, 5]: 60 to 74%
- pest or weed control at 70 g/ha [1, 5]: 75 to 84%
- pest or weed control at 140 g/ha [1, 5]: 75 to 84%
- pest or weed control at 35 g/ha [1, 6]: 30 to 44%
- pest or weed control at 70 g/ha [1, 6]: 30 to 44%
- pest or weed control at 140 g/ha [1, 6]: 30 to 44%
- pest or weed control at 35 g/ha [1, 7]: 60 to 74%
- pest or weed control at 70 g/ha [1, 7]: 60 to 74%
- pest or weed control at 140 g/ha [1, 7]: 60 to 74%
- pest or weed control at 35 g/ha [1, 8]: 95 to 100%
- pest or weed control at 70 g/ha [1, 8]: 95 to 100%
- pest or weed control at 140 g/ha [1, 8]: 95 to 100%
- pest or weed control at 35 g/ha [2, 9]: 85 to 94%
- pest or weed control at 70 g/ha [2, 9]: 85 to 94%
- pest or weed control at 140 g/ha [2, 9]: 85 to 94%
- pest or weed control at 35 g/ha [2, 10]: 95 to 100%
- pest or weed control at 70 g/ha [2, 10]: 95 to 100%
- pest or weed control at 140 g/ha [2, 10]: 95 to 100%
- pest or weed control at 35 g/ha [2, 11]: 95 to 100%
- pest or weed control at 70 g/ha [2, 11]: 95 to 100%
- pest or weed control at 140 g/ha [2, 11]: 95 to 100%
- pest or weed control at 35 g/ha [2, 12]: 45 to 59%
- pest or weed control at 70 g/ha [2, 12]: 60 to 74%
- pest or weed control at 140 g/ha [2, 12]: 75 to 84%
- pest or weed control at 35 g/ha [2, 13]: 85 to 94%
- pest or weed control at 70 g/ha [2, 13]: 85 to 94%
- pest or weed control at 140 g/ha [2, 13]: 85 to 94%
- pest or weed control at 35 g/ha [2, 14]: 95 to 100%
- pest or weed control at 70 g/ha [2, 14]: 95 to 100%
- pest or weed control at 140 g/ha [2, 14]: 95 to 100%
